Where two headings read alike, the source gives them in different places.
Experiment: Plasma pharmacokinetics of CX-5461 (HPLC-MS/MS, non-compartmental)
Type: in vivo, human
Conditions: plasma; for concentration at 48 h / concentration at 72 h / concentration at 0.5 h / concentration at 1 h / concentration at 4 h / concentration at 6 h / concentration at 0 h / concentration at 2 h / concentration at 24 h: individual patients, read-out: Day 1 CX-5461 plasma concentration
Method: PK was assessed on all patients in the escalation phase. Venous blood samples were collected on treatment days 1, 8, and 15 (where applicable), and plasma CX-5461 was analyzed with HPLC-MS/MS (schedule details in Supplementary Table 3). PK parameters were calculated with non-compartmental methods. […] The protocol was amended to allow submission of a ctDNA sample and in a further amendment, a mandatory skin biopsy (pre-treatment and cycle 1 day 15) to study phototoxic effects. Fresh tumor biopsies were optional.
Supplementary Table 3. Schedule for collection of CX5461 pharmacokinetics
During infusion at 30 minutes
Immediately post infusion then:
C1D1 30 minutes post infusion
C1D2 24 hours post infusion
C1D3 48 hours post infusion
C1D4 72 hours post infusion
Immediately post infusion then
C1D15 30 minutes post infusion
C1D16 24 hours post infusion
In addition to the specific time points listed above, additional samples were to be collected from […]

[1] = human, intravenous, 50 mg/m2, 50 mg/m2
[2] = human, intravenous, 100 mg/m2, 100 mg/m2
[3] = human, intravenous, 150 mg/m2, 150 mg/m2
[4] = human, intravenous, 200 mg/m2, 200 mg/m2
[5] = human, intravenous, 250 mg/m2, 250 mg/m2
[6] = human, intravenous, 325 mg/m2, 325 mg/m2
[7] = human, intravenous, 325 mg/m2, B: 325 mg/m2
[8] = human, intravenous, 475 mg/m2, 475 mg/m2
[9] = human, intravenous, 475 mg/m2, B: 475 mg/m2
[10] = human, intravenous, 650 mg/m2, 650 mg/m2

## Cc1cnc(CNC(=O)c2c(=O)c3ccc(N4CCCN(C)CC4)nc3n3c2sc2ccccc23)cn1 [CX-5461]
[1]
  concentration at 48 h: 24.8 ng/mL
  concentration at 72 h: 13.3 ng/mL
human, intravenous, 50 mg/m2, Dose level 50 (mg/m2), one patient per datapoint, read-out: Day 1 AUC
  AUC: 3240 ng·h/mL
[2]
  concentration at 0.5 h: 141 ng/mL
  concentration at 1 h: 115 ng/mL
  concentration at 4 h: 103 ng/mL
  concentration at 6 h: 83.2 ng/mL
  concentration at 48 h: 44.7 ng/mL
  concentration at 72 h: 20 ng/mL
human, intravenous, 100 mg/m2, Dose level 100 (mg/m2), one patient per datapoint, read-out: Day 1 AUC
  AUC: 5240 ng·h/mL
human, intravenous, 100 mg/m2, Dose level 100 (mg/m2), one patient per datapoint, read-out: Day 8 or 15 Cmax
  Cmax: 1140 ng/mL
[3]
  concentration at 0 h: 465 ng/mL
  concentration at 0.5 h: 320 ng/mL
  concentration at 2 h: 206 ng/mL
  concentration at 4 h: 200 ng/mL
  concentration at 6 h: 179 ng/mL
human, intravenous, 150 mg/m2, Dose level 150 (mg/m2), one patient per datapoint, read-out: Day 1 Cmax
  Cmax: 465 ng/mL
human, intravenous, 150 mg/m2, Dose level 150 (mg/m2), one patient per datapoint, read-out: Day 8 or 15 AUC
  AUC: 19600 ng·h/mL
[4]
  concentration at 24 h: 72.8 ng/mL
  concentration at 72 h: 31.4 ng/mL
[5]
  concentration at 0 h: 867 ng/mL
  concentration at 0.5 h: 420 ng/mL
  concentration at 1 h: 423 ng/mL
  concentration at 2 h: 369 ng/mL
  concentration at 4 h: 233 ng/mL
  concentration at 24 h: 197 ng/mL
  concentration at 48 h: 106 ng/mL
  concentration at 72 h: 85.4 ng/mL
human, intravenous, 250 mg/m2, Dose level 250 (mg/m2), one patient per datapoint, read-out: Day 1 AUC
  AUC: 12400 ng·h/mL
human, intravenous, 250 mg/m2, Dose level 250 (mg/m2), one patient per datapoint, read-out: Day 8 or 15 AUC
  AUC: 19000 ng·h/mL
[6]
  concentration at 0 h: 1310 ng/mL
  concentration at 0.5 h: 446 ng/mL
  concentration at 1 h: 400 ng/mL
  concentration at 2 h: 395 ng/mL
  concentration at 4 h: 244 ng/mL
  concentration at 6 h: 291 ng/mL
  concentration at 24 h: 232 ng/mL
  concentration at 48 h: 138 ng/mL
  concentration at 72 h: 110 ng/mL
[7]
  concentration at 1 h: 297 ng/mL
  concentration at 2 h: 308 ng/mL
  concentration at 4 h: 252 ng/mL
  concentration at 6 h: 271 ng/mL
  concentration at 48 h: 203 ng/mL
  concentration at 72 h: 107 ng/mL
human, intravenous, 325 mg/m2, Dose level 325 (mg/m2), one patient per datapoint, read-out: Day 1 AUC
  AUC: 15000 ng·h/mL
human, intravenous, 325 mg/m2, Dose level 325 (mg/m2), one patient per datapoint, read-out: Day 1 Cmax
  Cmax: 1310 ng/mL
human, intravenous, 325 mg/m2, Dose level 325 (mg/m2), one patient per datapoint, read-out: Day 8 or 15 AUC
  AUC: 24600 ng·h/mL
human, intravenous, 325 mg/m2, Dose level 325 (mg/m2), one patient per datapoint, read-out: Day 8 or 15 Cmax
  Cmax: 1440 ng/mL
human, intravenous, 325 mg/m2, Dose level B: 325 (mg/m2), one patient per datapoint, read-out: Day 1 AUC
  AUC: 25200 ng·h/mL
human, intravenous, 325 mg/m2, Dose level B: 325 (mg/m2), one patient per datapoint, read-out: Day 1 Cmax
  Cmax: 822 ng/mL
[8]
  concentration at 0 h: 1540 ng/mL
  concentration at 0.5 h: 475 ng/mL
  concentration at 1 h: 480 ng/mL
  concentration at 2 h: 445 ng/mL
  concentration at 4 h: 293 ng/mL
  concentration at 6 h: 274 ng/mL
  concentration at 24 h: 242 ng/mL
  concentration at 48 h: 140 ng/mL
  concentration at 72 h: 104 ng/mL
[9]
  concentration at 0.5 h: 890 ng/mL
  concentration at 1 h: 698 ng/mL
  concentration at 4 h: 424 ng/mL
  concentration at 48 h: 336 ng/mL
  concentration at 72 h: 219 ng/mL
human, intravenous, 475 mg/m2, Dose level 475 (mg/m2), one patient per datapoint, read-out: Day 1 AUC
  AUC: 15800 ng·h/mL
human, intravenous, 475 mg/m2, Dose level 475 (mg/m2), one patient per datapoint, read-out: Day 1 Cmax
  Cmax: 1850 ng/mL
human, intravenous, 475 mg/m2, Dose level 475 (mg/m2), one patient per datapoint, read-out: Day 8 or 15 Cmax
  Cmax: 1680 ng/mL
human, intravenous, 475 mg/m2, RP2D 475 mg/m^2 d1,8,15, read-out: average day 1 Cmax
  Cmax: 1740 ± 801 ng/mL
human, intravenous, 475 mg/m2, RP2D 475 mg/m^2 d1,8,15, read-out: day 15 Cmax
  Cmax: 2870 ± 2310 ng/mL
human, intravenous, 475 mg/m2, RP2D 475 mg/m^2 d1,8,15, read-out: elimination half-life (t1/2), day 1 (converted)
  half-life: 61.5 ± 15.5 h
human, intravenous, 475 mg/m2, RP2D 475 mg/m^2 d1,8,15, read-out: elimination half-life (t1/2), day 15 (converted)
  half-life: 59 ± 11.2 h
human, intravenous, 475 mg/m^2, 14 days after the prior dose, read-out: mean trough plasma level prior to cycle 2 day 1
  concentration at 14 days: 49.1 ± 34.5 ng/mL
[10]
  concentration at 0 h: 953 ng/mL
  concentration at 0.5 h: 1040 ng/mL
  concentration at 2 h: 712 ng/mL
  concentration at 4 h: 495 ng/mL
  concentration at 48 h: 222 ng/mL
human, intravenous, 650 mg/m2, Dose level 650 (mg/m2), one patient per datapoint, read-out: Day 1 AUC
  AUC: 26800 ng·h/mL
  elimination: eliminated slowly

From paper PMC9232501, “Results of the phase I CCTG IND.231 trial of CX-5461 in patients with advanced solid tumors enriched for DNA-repair deficiencies” (Nature Communications, 2022)
